Measurements published in a melting point compilation (Tetko et al.; mined from patent text by program, amines drawn as free bases though some values may be those of a salt).

| melting point | SMILES |
| --- | --- |
| 155 to 157 °C | CN1CCCc2cc(C(C)(C(=O)O)c3ccc4c(c3)CCCN4C)ccc21 |
| 72 to 76 °C | CCCCCCCCCCCCCCCCOc1ccc(C(C)=O)o1 |
| 138 to 140 °C | CC(C)(C)OC(=O)N1CCC(Oc2ccc(C(=O)Cc3ccccn3)cc2)CC1 |
| 61 to 62 °C | CCOC(=O)Cc1c(-c2ccccc2)[nH]c2ccccc12 |
| 160 to 163 °C | NC(=O)N(O)CCNC(=O)c1ccc(Oc2ccccc2)o1 |
| 74 to 75 °C | COc1cc(C=O)ccc1OCCCCCCOC(C)=O |
| 177 to 179 °C | C1=C(CCc2ccccc2)CCN(Cc2nc3ccccc3[nH]2)C1 |
| 195 to 196 °C | Cn1nc(-c2cc(C=C(Cl)C(=O)O)c(Cl)cc2F)c(Cl)c1C(F)(F)F |
| 204 °C | NS(=O)(=O)c1cccc(-c2cn(-c3nc(-c4cccc(Cl)c4)cc(C(F)(F)F)n3)cn2)c1 |
| 141 to 143 °C | FC(F)(F)c1cc(OCc2ccc(-c3ccccc3-c3nnn(C(c4ccccc4)(c4ccccc4)c4ccccc4)n3)cc2)c2c(n1)CCCC2 |
| 119 to 120 °C | Nc1cc(F)c2c(c1)Cc1cc(F)ccc1-2 |
| 117 to 119 °C | Cc1cc(OC(F)F)ccc1C(=O)O |
| 134 °C | CCCC(=O)Nc1cc(S(=O)c2ccccc2)ccc1N(C(=N)NC(=O)OC)C(=O)OC (configuration not stated) |
| 200 to 202 °C | Cc1c(Nc2c(C#N)cncc2-c2cnc(C=O)n2C)ccc2[nH]ccc12 |
| 321 to 322 °C | COc1cc2c(c(OC(C)=O)c1OC)=NC(=O)C(=O)N=2 |
| 181 °C | Cc1cc2c(N=C3SC[C@@H]4Cc5ccccc5CN34)cccc2cn1 |
| 86 to 100 °C | COC1(c2cc(F)cc(OCC#Cc3ccc(Cc4nc(-c5ccccc5)c(-c5ccc(S(N)(=O)=O)cc5)o4)cc3)c2)CCOCC1 |
| 230 °C | FC(F)(F)c1cc(Nc2cc[nH]n2)nc(-c2cccnc2)n1 |
| 154 °C | Nc1cc(C(=O)N2CCC2)cc(C(F)(F)F)c1 |
| 73 to 74 °C | CC(C)(C)OC(=O)n1cnc2c(I)cc(F)cc21 |
| > 300 °C | Cc1[nH]n(Cc2ccc(C(=O)O)cc2)c2nc(-c3ccncc3)nc(=O)c1-2 |
| 159 to 160 °C | Cc1nc2cc(F)ccc2c(=O)o1 |
| 90 to 91 °C | CCCCCCC(=N)NC(=S)Nc1ccc(OC(F)(F)F)cc1 |
| 132 to 137 °C | COC(=O)c1ccc(CNC(=O)c2c(N)cc(Cl)cc2Cl)cc1 |

| melting point | SMILES |
| --- | --- |
| 148 to 151 °C | O=C(NNc1ccccc1)NC1(N=NC2(NC(=O)NNc3ccccc3)CCCCC2)CCCCC1 |
| 198 °C | CC(=NNC(=O)c1ccc(C(F)(F)F)cc1)c1ccncc1 |
| 126 to 128 °C | CCCC(C)(CC)C(=O)O[C@H]1C[C@H](O)C=C2C=C[C@H](C)[C@H](CC[C@@H]3C[C@@H](O)CC(=O)O3)[C@H]21 (some centres not stated) |
| 148 to 150 °C | Cc1c(C(N)=O)oc2nn(C)c(C)c12 |
| 196 to 198 °C | Cc1cc(C)c(Nc2nc(C)ncc2S(=O)(=O)c2ccc(N3CCCC3)cc2)c(C)c1 |
| 138 to 139 °C | O=[N+]([O-])c1sc(-n2cccc2)nc1Cl |
| 83 to 85 °C | O=C1c2ccccc2C(=O)N1CCSCc1ccc(C2OCCO2)o1 |
| > 285 °C | COc1ccc(Nc2nc(-c3ccccc3)c(C(=O)c3sc(Nc4ccc(OC)cc4)nc3-c3ccccc3)s2)cc1 |
| 53 to 54 °C | Cc1cccc(C(=O)c2ccc(F)cc2)n1 |
| 205 °C | Cn1c(C(=O)O)c(-c2ccc(F)cc2)c2ccsc2c1=O |
| 108 to 110 °C | COc1cccc(CNC(=O)c2ccc(CCl)cc2)c1 |
| 107 to 109 °C | CCCCCCCCCCCCCCCCNC(=O)c1cc(OCCS(C)(=O)=O)c2ccccc2c1O |
| 213 to 214 °C | CCOc1cc(Cc2cnc(N)nc2N)cc2c1OC1(C=C2Br)CCC1 |
| 148 to 150 °C | CN(C)C=C1Cc2cc(Cl)ccc2C1=O |
| 153 to 154 °C | CCCCCCCOc1cc2c(cc1/C(C)=C/c1ccc(C(=O)O)cc1)C(C)(C)CCCS2(=O)=O |
| 221 to 225 °C | CS(=O)(=O)Nc1cccc(Nc2nc(NCc3cccc(O)c3)c3nc[nH]c3n2)c1 |
| 100 to 102 °C | CN1C(=O)CC[C@]2(C)c3ccc(-c4ccc(F)c(F)c4F)cc3CC[C@@H]12 |
| 178 to 180 °C | CCOC(=O)c1cn(CCF)c2cc(F)c(F)cc2c1=O |
| 118 to 120 °C | NS(=O)(=O)c1nc2ccc(OC(=O)CC3CCCC3)cc2s1 |
| 180 to 183 °C | Cc1ccccc1-c1c(CC(=O)O)c(=O)oc2ccc(Cl)cc12 |
| 90 to 91 °C | CC(O)CNC(=O)c1cc2ccccc2o1 (configuration not stated) |
| 108 to 109 °C | COC(=O)Cc1ccc2nc(C(F)(F)F)cc(Cl)c2c1 |
| 274 to 281 °C | CN1CCN(c2cccc(-c3cnn4cc(C(=O)O)cnc34)c2)CC1 |
| 43 to 47 °C | Brc1ccc2c(c1)COCO2 |

| melting point | SMILES |
| --- | --- |
| 105 to 107 °C | ClCCOc1ccc2c(c1)oc1cc(Cl)ccc12 |
| 200 to 202 °C | CNc1nc(-c2cccc(-c3cncc(-c4ccccc4)c3)c2)c2cc(OC)c(OC)cc2n1 |
| 92 to 94 °C | Cc1cc(N)cnc1Oc1ccc(Cl)c(C(F)(F)F)c1 |
| 144 to 145 °C | CC(C)(C)OC(=O)C(N)Cn1c(=O)c(-c2cccs2)nc2ccccc21 (configuration not stated) |
| 131 to 133 °C | CS(=O)(=O)Nc1cnccc1CCCOc1cccnc1Oc1cccc(Cl)c1 |
| 134 to 135 °C | COCCOCOc1c(C(C)(C)C)cc(-c2n[nH]c(=S)s2)cc1C(C)(C)C |
| 131 to 132 °C | O=C(O)CCCCCc1cncc2ccccc12 |
| 66 to 69 °C | OC1CCC2(CC1)CCC(CCc1ccoc1)CC2 (configuration not stated) |
| 67 to 71 °C | COc1ccc2cccc(Cc3ccccc3)c2c1O |
| 154 to 156 °C | CC(=NO)c1ccc(C2=CCCCC2)cc1 |
| 161 °C | CCOC(=O)NN=Cc1ccnc2ccccc12 |
| 165 to 166 °C | O=[N+]([O-])c1ccc(Oc2cccc3cccnc23)cc1 |
| 54 to 56 °C | CC(=O)OCC(=O)c1ccc(F)cc1F |
| 70 to 72 °C | COc1cccc(N2CCN(C(=O)NCCN(C)C)CC2)c1 |
| 167 to 168 °C | Cc1cc(NCC(O)CO)c2ccccc2n1 (configuration not stated) |
| 198 to 199 °C | CCCCCCCNC(=O)Nc1ccccc1C(=O)NC1CCN(C2c3ccccc3COc3ccc(Br)cc32)CC1 (configuration not stated) |
| > 130 °C | CCCCc1nn(-c2cc(NC(=O)CCC)ccc2Cl)c(=O)n1Cc1ccc(-c2ccccc2S(=O)(=O)NC(=O)c2ccccc2Cl)cc1 |
| 187 to 188 °C | c1ccc2nc(N3CCN(Cc4n[nH]c5ccccc45)CC3)ccc2c1 |
| 182 to 184 °C | O=C(Nc1ccc(Cl)c(C(F)(F)F)c1)Nc1ccc(OCc2ccccc2)cc1O |
| 114 to 116 °C | CCCCCCCCCCCCCCCCCc1nc(N)nc(N)n1 |
| 167 to 168 °C | COc1cc(OC)c(-c2cccs2)cc1/C=C/C(=O)c1ccc(S(=O)(=O)NCC(F)(F)F)cc1 |
| 99 °C | CCS(=O)(=O)c1ccc(C(=O)C2C(=O)CCCC2=O)c(Cl)c1C1=NOC2OCCC12 (configuration not stated) |
| 170 to 172 °C | CO[C@]1(c2csc(S(=O)(=O)c3ccc4c(c3)CC/C4=N\O)c2)CCO[C@@H]1C (racemic) |
| 164 to 165 °C | COc1cc(OCC(=O)O)cc(C)c1SCc1sc(-c2ccc(C(F)(F)F)cc2)nc1C |

| melting point | SMILES |
| --- | --- |
| 93 to 96 °C | CCCCOC(=O)C(C)NC(=O)c1cc([N+](=O)[O-])cc([N+](=O)[O-])c1 (configuration not stated) |
| 214 to 217 °C | CCOc1ccc2c(=O)c(-c3nnnn3C)cn(C)c2c1 |
| 123 to 125 °C | CC1(C)C=C(N2CCCC2=O)c2cc(Cl)ccc2O1 |
| 102 °C | CCCCc1c(C(=O)c2ccc(OC)cc2)n(C)c2ccc([N+](=O)[O-])cc12 |
| 102 °C | Cc1ccc(CNc2ccc3c(C#N)cccc3n2)o1 |
| 169 to 171 °C | COc1cc(OCC(=O)O)c(C)cc1SCCc1ccc(-c2ccc(C(F)(F)F)cc2)cc1 |
| 134 to 136 °C | CC(=O)N(C#N)c1ccc(Cc2ccc(N(C#N)C(C)=O)cc2)cc1 |
| 101 to 106 °C | CC(C)C1SC=CNC1=O (racemic) |
| 255 to 257 °C | Cc1nc2c(N)nc3ccccc3c2n1OC(C)(C)C |
| 198 to 200 °C | CN(C)c1ccc2cc(-c3ccnc(Cl)c3C#N)ccc2c1 |
| 169 to 170 °C | COc1ccccc1C1c2cc(NC(=O)CC(C)(C)C)c(C)c(C)c2OC1(C)C (configuration not stated) |
| 99 °C | Nc1cc(F)ccc1[N+](=O)[O-] |
| 76 to 78 °C | O=C(NCCSCc1cccc([N+](=O)[O-])c1)c1c(Cl)cccc1Cl |
| 275 °C | CCc1[nH]c(=S)[nH]c1C(=O)c1ccncc1 |
| 217 °C | CCC1OC(=O)N(CCc2ccc(NC(=O)c3sc(C)nc3C)cc2)N=C1c1ccc(OC)c(OC)c1 (configuration not stated) |
| 115 °C | OCCn1cc(-c2ccccc2)c(OCc2ccccc2)n1 |
| 81 to 82 °C | CN(C)c1ncc(Br)cn1 |
| > 230 °C | CCCNC(=O)C=C1SC(Nc2c(Cl)cccc2Cl)=NC1=O |
| 149 to 150 °C | CCCCCCCCCCCCc1ccc(S(=O)(=O)Nc2nnc(C)s2)cc1 |
| 210 to 213 °C | N#Cc1cc(C=C2NC(=S)NC2=O)cc(O)c1O |
| 127 to 129 °C | COc1cc2c(cc1OC)CN(CCCCNC(=O)c1cc(Br)cc(OC)c1OCCF)CC2 |
| 120 to 121 °C | Cc1oc(-c2ccccc2)nc1COc1ccc(CCCCCC2OC(=O)NC2=O)cc1 (configuration not stated) |
| 138 to 140 °C | CC#Cc1cc(C)nc(Nc2ccc(F)cc2)n1 |
| 176 to 179 °C | COc1cc(N2CCC(N3CCN(C)CC3)CC2)ccc1Nc1ncc2cc3ccccc3n2n1 |

| SMILES | melting point |
| --- | --- |
| Fc1ccccc1-c1cn([C@H]2CN3CCC2CC3)nn1 | 94 °C |
| COc1cc2c(cc1OC)N(C)C(=O)CN=C2c1cccc(-c2ccc(Cl)cc2)c1 | 131 °C |
| C1=C(c2c[nH]c3c(C4CC4)cccc23)CCNC1 | 186 to 189 °C |
| Cn1cc(-c2ccc(C34CCCN(CC3)C4)cn2)cn1 (racemic) | 138 to 140 °C |
| CCOC(=O)c1ccc(C2=NOC(c3cc(Cl)cc(Cl)c3)(C(F)(F)F)C2)cc1OC (configuration not stated) | 142 to 144 °C |
| Cc1nc[nH]c1CSCCNC(=N)N[N+](=O)[O-] | 146 to 147 °C |
